# Patent US6583172B1, “Anticonvulsant derivatives useful in treating chronic neurodegenerative disorders” (priority 1999, dated 2003)
# Where no end group is shown, it is not given here.
# Key:
# [1] = test system: rat hippocampal cells; test: Neurite outgrowth in rat hippocampal cell cultures, MAP-2 immunofluorescence; type: cell-based; conditions: seven days in culture, concentrations ranging from 100 nM to 100 μM, P<0.05
# Protocol: In studies in vitro, cultures of rat hippocampal and cerebral cortical cells were established from embryonic day 18 pups. The cells were grown in culture wells ([…]), or the neurotrophic factors BDNF (brain-derived neurotrophic, 10 ng) and α-MSH (alpha-melanocyte stimulating hormone, 50 nM), or vehicle (isotonic saline). Each compound was added to the culture medium in a specified set of wells at the time the cells were plated and then again four days later when the culture media was removed and replaced with fresh media. On the seventh day in culture, the cells were treated with formalin, a tissue fixative. Subsequently, the cells were treated with a fluorescein-labeled antibody specific for microtubule associated protein-2 (MAP-2), a selective marker for dendritic processes. The amount of fluorescein-labeled antibody bound to MAP-2 (FITC signal) in each well was analytically determined. This information was then used to calculate the relative degree of neurite outgrowth for the cells in each well. […] FIG. 1 is a bar graph illustrating the effects of topiramate, BDNF,α-MSH and GPI on neurite outgrowth in rat hippocampal cell cultures, as measured by MAP-2 immunofluorescence. […]
# [2] = test system: rat cerebral cortical cells; test: Neurite outgrowth in rat cerebral cortical cell cultures, MAP-2 immunofluorescence; type: cell-based; conditions: p<0.05
# Protocol: In studies in vitro, cultures of rat hippocampal and cerebral cortical cells were established from embryonic day 18 pups. The cells were grown in culture wells (plates) for seven days in the presence of various concentrations of topiramate ([…]), or the neurotrophic factors BDNF (brain-derived neurotrophic, 10 ng) and α-MSH (alpha-melanocyte stimulating hormone, 50 nM), or vehicle (isotonic saline). Each compound was added to the culture medium in a specified set of wells at the time the cells were plated and then again four days later when the culture media was removed and replaced with fresh media. On the seventh day in culture, the cells were treated with formalin, a tissue fixative. Subsequently, the cells were treated with a fluorescein-labeled antibody specific for microtubule associated protein-2 (MAP-2), a selective marker for dendritic processes. The amount of fluorescein-labeled antibody bound to MAP-2 (FITC signal) in each well was analytically determined. This information was then used to calculate the relative degree of neurite outgrowth for the cells in each well. […] FIG. 2 is a bar graph illustrating the effects of topiramate, BDNF,α-MSH and GPI on neurite outgrowth in rat cerebral cortical cell cultures, as measured by MAP-2 immunofluorescence. […]
# [3] = test system: rat facial nerve; test: Rat facial nerve compression model of peripheral nerve injury, restoration of whisker movement; type: in vivo
# Protocol: In the study in vivo, topiramate was evaluated in a rat facial nerve compression model of peripheral nerve injury. Rats were anesthetized, their skin and muscle excised to visualize the facial nerve. The nerve was injured near the stylom by compression with forceps. The wound was sutured and the rat allowed to recover before compound administration. The rats were divided into three groups: vehicle-treated, topiramate-treated (p.o., 20 mg/kg) and α-MSH-treated (s.c., 1 mg/kg). Compounds were administered twice daily for 14 days post-surgery. Facial nerve compression causes paralysis of the whisker muscle ipsilateral to the injury site. Restoration of whisker movement (lesioned versus non-lesioned side) was monitored daily for 14 days. Spontaneous recovery of whisker movement was detected as early as 10 days post-surgery with full recovery achieved by 13 days.
# FIG. 3 is a line graph illustrating the effects of topiramate and α-MSH on the restoration of facial nerve function in rats, as measured by the rate whisker movement. The total rate of whisker movement on the side that the facial nerve was not injured was assigned a value of 100. Whisker movement on the side of the injured nerve is presented as a percent ±SEM of the whisker movement on the non-injured side. The rate of whisker movement was monitored visually by a skilled observer blinded to the treatment each rat received.
# [4] = test system: simple and complex partial seizures and secondarily generalized seizures; conditions: human epilepsy; cited from earlier work
# [5] = test system: rodent models of epilepsy; conditions: several rodent models of epilepsy; cited from earlier work
# [6] = test system: animal model of kindled epilepsy; conditions: cited from earlier work
Compound,"increase in neurite outgrowth (FITC signal, MAP-2) versus vehicle [1]",neurite outgrowth ([2]; 100 nM),neurite outgrowth ([2]; 10 μM),"whisker movement recovery, day 11 ([3]; p.o., 20 mg/kg twice daily, day 11 post-surgery, vehicle=19%, p<0.001) [%]","whisker movement recovery, day 12 ([3]; p.o., 20 mg/kg twice daily, day 12 post-surgery, vehicle=68%, p<0.01) [%]",efficacy in treating seizures in clinical trials [4],block of seizures [5],block of seizures [6],"increase in whisker movement recovery versus vehicle, days 11 and 12 ([3]; s.c., 1 mg/kg twice daily, days 11 and 12 post-surgery)"
"CC1(C)O[C@@H]2[C@@H](CO[C@@]3(COS(N)(=O)=O)OC(C)(C)O[C@@H]23)O1 [topiramate, 2,3:4,5-bis-O-(1-methylethylidene)-β-D-fructopyranose sulfamate]",significantly higher,119 % of control,119 % of control,60,92,effective as adjunctive therapy or as monotherapy,effectively block seizures,effectively block seizures,
"α-MSH: alpha-melanocyte stimulating hormone, neurotrophic factor used as comparator (SYSMEHFRWGKPV; ends and bridges not checked; UniProt P01189 138-150, looked up)",,,,,,,,,"smaller, statistically nonsignificant increase"
